The values below come from patent US12678446B2 (PFIZER INC., priority 2020, dated 2026).

Data set [1] is described as follows: cell toxicity CC50. It is filed as cell-based. As to conditions: human; Hep-G2 cells; mean of at least two experiments; read-out: Cell Cytotoxicity CC50.
Data set [2] concerns RSV (RSV A2 ECACC, 0709161v). In words: RSV plaque reduction assay. Format: cell-based, respiratory syncytial virus. To be noted: human respiratory syncytial virus, HepG2, read-out: RSV A2 Plaque EC50, RSV A2 in Hep-G2 cells; mean of at least two experiments unless noted (n = 1). In a few lines:
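Hep-G2 monolayers infected with 100 PFU/well RSV A2 premixed with eight serial compound dilutions (2 h, 37° C.), then kept 2 days under CMC overlay with compound in DMEM/2% FBS. Plaques immunostained (HRP/TrueBlue) and counted; % infection versus virus control gives EC50, mean of at least two experiments, rounded.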
Background: Plaques are areas of infected cells; plaque reduction assays count them against a control.

SMILES strings stand for the structures. Some results are limits rather than exact numbers.

What is called CC50 is the concentration at which the toxic effect on the cells reaches its halfway point. One may read the EC50 as the concentration giving half of the maximal effect.

On to `C[C@H]1CCn2nc(-c3cnn(C4CCOCC4)c3)c(C(=O)N[C@H]3N=C(c4ccccc4)c4cccc(F)c4NC3=O)c2O1` [Example 156, (5S)-N-[(3S)-9-fluoro-2-oxo-5-phenyl-1,3-dihydro-1,4-benzodiazepin-3-yl]-5-methyl-2-[1-(oxan-4-yl)pyrazol-4-yl]-6,7-dihydro-5H-pyrazolo[5,1-b][1,3]oxazine-3-carboxamide], for which the CC50 in data set [1] is above 25000 nM. Further, the EC50 in data set [2] is 39 nM.
On the same counts, the results for `C[C@H]1CCn2nc(-c3cnn(CC(F)(F)F)c3)c(C(=O)N[C@H]3N=C(c4ccccc4)c4cccc(F)c4NC3=O)c2O1` [Example 157, (5S)-N-[(3S)-9-fluoro-2-oxo-5-phenyl-1,3-dihydro-1,4-benzodiazepin-3-yl]-5-methyl-2-[1-(2,2,2-trifluoroethyl)pyrazol-4-yl]-6,7-dihydro-5H-pyrazolo[5,1-b][1,3]oxazine-3-carboxamide] are above 25000 nM and 48 nM.
For `CCn1cc(-c2nn3c(c2C(=O)N[C@H]2N=C(c4ccccc4)c4cccc(F)c4NC2=O)O[C@@H](C)CC3)cn1` [Example 158, (5S)-2-(1-Ethylpyrazol-4-yl)-N-[(3S)-9-fluoro-2-oxo-5-phenyl-1,3-dihydro-1,4-benzodiazepin-3-yl]-5-methyl-6,7-dihydro-5H-pyrazolo[5,1-b][1,3]oxazine-3-carboxamide], the CC50 in data set [1] was above 25000 nM. Further, in data set [2], the EC50 worked out at 48 nM.
With `C[C@@H]1CCn2nc(-c3cn[nH]c3)c(C(=O)N[C@H]3N=C(c4ccccc4)c4cccc(F)c4NC3=O)c2O1` [Example 159, (5R)-N-[(3S)-9-fluoro-2-oxo-5-phenyl-1,3-dihydro-1,4-benzodiazepin-3-yl]-5-methyl-2-(1H-pyrazol-4-yl)-6,7-dihydro-5H-pyrazolo[5,1-b][1,3]oxazine-3-carboxamide], the CC50 in data set [1] was above 25000 nM. Moreover, the EC50 in data set [2] worked out at 395 nM.
For `O=C(N[C@H]1N=C(c2ccccc2)c2cccc(F)c2NC1=O)c1c(-c2ccccc2F)nn2c1OCC(O)C2` (stereo partly drawn) [Example 160, 2-(2-Fluorophenyl)-6-hydroxy-N-[(3S)-9-fluoro-2-oxo-5-phenyl-1,3-dihydro-1,4-benzodiazepin-3-yl]-6,7-dihydro-5H-pyrazolo[5,1-b][1,3]oxazine-3-carboxamide], the CC50 in data set [1] was above 25000 nM. In addition, the EC50 in data set [2] came out at 148 nM.
The matching figures for `C[C@@H]1CCn2nc(C3CCN(S(C)(=O)=O)CC3)c(C(=O)N[C@H]3N=C(c4ccccc4)c4cccc(F)c4NC3=O)c2O1` [Example 161, (5R)-N-[(3S)-9-fluoro-2-oxo-5-phenyl-1,3-dihydro-1,4-benzodiazepin-3-yl]-5-methyl-2-(1-methylsulfonylpiperi-din-4-yl)-6,7-dihydro-5H-pyrazolo[5,1-b][1,3]oxazine-3-carboxamide]: above 25000 nM and 54 nM.
On the same counts, the results for `C[C@@H]1CCn2nc(C3CCN(S(C)(=O)=O)CC3)c(C(=O)N[C@H]3N=C(c4ccccc4)c4ccccc4NC3=O)c2O1` [Example 162, (5R)-5-Methyl-2-(1-methylsulfonylpiperi-din-4-yl)-N-[(3S)-2-oxo-5-phenyl-1,3-dihydro-1,4-benzodiazepin-3-yl]-6,7-dihydro-5H-pyrazolo[5,1-b][1,3]oxazine-3-carboxamide] are above 25000 nM and 166 nM.
On the same counts, the results for `CCN(CC)CC1COc2c(C(=O)N[C@H]3N=C(c4ccccc4)c4cccc(F)c4NC3=O)c(-c3ccccc3F)nn2C1` (stereo partly drawn) [Example 164, 6-(Diethylaminomethyl)-N-[(3S)-9-fluoro-2-oxo-5-phenyl-1,3-dihydro-1,4-benzodiazepin-3-yl]-2-(2-fluorophenyl)-6,7-dihydro-5H-pyrazolo[5,1-b][1,3]oxazine-3-carboxamide] are above 25000 nM and 87 nM.
As to `C[C@@H]1CCn2nc(-c3cnn(CCN(C)C)c3)c(C(=O)N[C@H]3N=C(c4ccccc4)c4cccc(F)c4NC3=O)c2O1` [Example 165, (5R)-2-[1-[2-(Dimethylamino)ethyl]pyrazol-4-yl]-N-[(3S)-9-fluoro-2-oxo-5-phenyl-1,3-dihydro-1,4-benzodiazepin-3-yl]-5-methyl-6,7-dihydro-5H-pyrazolo[5,1-b][1,3]oxazine-3-carboxamide], the CC50 in data set [1] is above 25000 nM. Also, the EC50 in data set [2] was found to be 349 nM.
On the same counts, the results for `CN(C)CC1CCn2nc(-c3ccccc3F)c(C(=O)N[C@H]3N=C(c4ccccc4)c4cccc(F)c4NC3=O)c2O1` (stereo partly drawn) [Example 166, 5-[(Dimethylamino)methyl]-N-[(3S)-9-fluoro-2-oxo-5-phenyl-1,3-dihydro-1,4-benzodiazepin-3-yl]-2-(2-fluorophenyl)-6,7-dihydro-5H-pyrazolo[5,1-b][1,3]oxazine-3-carboxamide] are above 25000 nM and 201 nM.
The matching figures for `O=C(N[C@H]1N=C(c2ccccc2)c2cccc(F)c2NC1=O)c1c(-c2ccccc2F)nn2c1OC(CN1CCOCC1)CC2` (stereo partly drawn) [Example 167, N-[(3S)-9-fluoro-2-oxo-5-phenyl-1,3-dihydro-1,4-benzodiazepin-3-yl]-2-(2-fluorophenyl)-5-(morpholin-4-ylmethyl)-6,7-dihydro-5H-pyrazolo[5,1-b][1,3]oxazine-3-carboxamide]: above 25000 nM and 91 nM.
The matching figures for `CN(CC1COc2c(C(=O)N[C@H]3N=C(c4ccccc4)c4cccc(F)c4NC3=O)c(-c3ccccc3F)nn2C1)C1CCOCC1` (stereo partly drawn) [Example 168, N-[(3S)-9-fluoro-2-oxo-5-phenyl-1,3-dihydro-1,4-benzodiazepin-3-yl]-2-(2-fluorophenyl)-6-[[methyl(oxan-4-yl)amino]methyl]-6,7-dihydro-5H-pyrazolo[5,1-b][1,3]oxazine-3-carboxamide]: above 25000 nM and 104 nM.
As to `CN(CC1COc2c(C(=O)N[C@H]3N=C(c4ccccc4)c4cccc(F)c4NC3=O)c(-c3ccccc3F)nn2C1)C1COC1` (stereo partly drawn) [Example 169, N-[(3S)-9-fluoro-2-oxo-5-phenyl-1,3-dihydro-1,4-benzodiazepin-3-yl]-2-(2-fluorophenyl)-6-[[methyl(oxetan-3-yl)amino]methyl]-6,7-dihydro-5H-pyrazolo[5,1-b][1,3]oxazine-3-carboxamide], the CC50 in data set [1] is above 25000 nM. For the same compound, the EC50 in data set [2] was 114 nM.
The matching figures for `C[C@@H]1CCn2nc(-c3ccc(CN(C)C)cc3F)c(C(=O)N[C@H]3N=C(c4ccccc4)c4cccc(F)c4NC3=O)c2O1` [Example 170, (5R)-2-[4-[(Dimethylamino)methyl]-2-fluorophenyl]-N-[(3S)-9-fluoro-2-oxo-5-phenyl-1,3-dihydro-1,4-benzodiazepin-3-yl]-5-methyl-6,7-dihydro-5H-pyrazolo[5,1-b][1,3]oxazine-3-carboxamide]: above 25000 nM and 60 nM.
As to `CN1CCN(CC2COc3c(C(=O)N[C@H]4N=C(c5ccccc5)c5cccc(F)c5NC4=O)c(-c4ccccc4F)nn3C2)CC1` (stereo partly drawn) [Example 172, N-[(3S)-9-fluoro-2-oxo-5-phenyl-1,3-dihydro-1,4-benzodiazepin-3-yl]-2-(2-fluorophenyl)-6-[(4-methylpiperazin-1-yl)methyl]-6,7-dihydro-5H-pyrazolo[5,1-b][1,3]oxazine-3-carboxamide], the CC50 in data set [1] was above 19900 nM. The EC50 in data set [2] turned out to be 235 nM.
